Measurements as given in US5866574A, “Pancreatitis remedy” (Kyowa Hakko Kogyo Co., Ltd., priority 1997, dated 1999).
Counter-ions that a name gives are not always drawn.

Columns and labels:
[1] = test system: murine cerulein pancreatitis; test: effects on murine cerulein pancreatitis (serum amylase, lipase, GPT); assay type: in vivo, murine (female BALB/C mice); details: mean±SEM
Description: Test of the effects on murine cerulein pancreatitis
Experiment was conducted in accordance with the method described in Digestive Diseases and Science, 37, 274-279 (1992). Female BALB/C mice weighing 17 to 24 g were fasted for 16 hours. Water was provided ad libitum. Acute pancreatitis was induced by the administration of seven intraperitoueally injections of cerulein (50 μg/kg) at hourly intervals. Blood was drawn from abdominal vein, 3, 6, and 9 hours after the first injection of cerulein in case of Compound 1, Compound 2 and compound 3, while in case of Compound 4, blood was drawn therefrom 7 hours after the first injection of cerulein. Blood samples were centrifuged at 4° C. and 3,000 rpm for 10 minutes, and serum was separated. Serum amylase (Amy), lipase (Lip), and glutamic pyruvic transaminase (GPT) activities were measured. For Compound 1, Compound 2 and Compound 3, serum Amy was assayed with AU500/550 specific reagent "Katayama" Amy test(Katayama Chemical Industry Co., Ltd.); for Compound 4, serum Amy was assayed with "Rikitech P-AMY EPS" of BM pancreas-related reagent series (Boehringer Mannheim K. K.). Serum GPT was assayed with "Katayama" GPT test (Katayama Chemical Industry, Co., Ltd.). Serum Lip was assayed with an auto-analyzer reagent "Kyowa" Determiner Lipase (Kyowa Medex, Co., Ltd.). Compound 1, Compound 2, and Compound 3 were suspended in 0.5% methyl cellulose, and […] before the first injection of cerulein, the resulting suspension was orally given at a dose of 10 ml/kg. The solvent (0.5% methyl cellulose) was similarly given to a control group. Compound 4 was dissolved in distilled water, which was adjusted to pH 2 with 0.1N HCl, and then the resulting solution was adjusted to pH 4.5 with 0.1N sodium hydroxide. Compound 4 was orally administered one hour before the first injection of cerulein. The solvent (distilled water for injections, after adjustment to pH 4.5 with 0.1N HCl) was similarly given to a control group.
Results are expressed as means±SEM where appropriate. Difference between normal group and control group were evaluated using the Wilcoxon's rank sum test. And for differences between control group and test compound-treated group, the Steel's test was used for Compound 1 and the Wilcoxon's rank sum test was used for Compounds 2, Compound 3 and Compound 4.
The effects of Compound 1, Compound 2 and Compound 3 on serum Amy, serum Lip and serum GPT are shown in Tables 2, 3 and 4; and the effect of Compound 4 are shown in Table 5.

dd-strain male mice = test: Acute Toxicity Test; assay type: in vivo; details: mortality seven days after administration
From the text: Test compounds were orally or intraperitoneally administered to groups of dd-strain male mice weighing 20±1 g, each group consisting of three mice.

adenosine uptake = details: Nucleosides & Nucleotides, 10, 975-982 (1991); cited from earlier work
[2] = 10 mg/kg oral, 3 h after the first injection of cerulein
[3] = 10 mg/kg oral, 6 h after the first injection of cerulein
[4] = 10 mg/kg oral, 9 h after the first injection of cerulein
[5] = 30 mg/kg oral, 3 h after the first injection of cerulein
[6] = 30 mg/kg oral, 6 h after the first injection of cerulein
[7] = 30 mg/kg oral, 9 h after the first injection of cerulein
[8] = 300 mg/kg oral, 3 h after the first injection of cerulein
[9] = 300 mg/kg oral, 6 h after the first injection of cerulein
[10] = 300 mg/kg oral, 9 h after the first injection of cerulein
[11] = 10 mg/kg oral, 7 hours after the first injection of cerulein

## CCOc1cc2nc(N3CCOCC3)nc(N3CCC(n4c(=O)c5cc(C)ccc5n(C)c4=O)CC3)c2cc1OCC [Compound 1, 3-[1-(6,7-Diethoxy-2-morpholino-4-quinazolynyl)-4-piperidinyl]-1,2,3,4-tetrahydro-1,6-dimethyl-2,4-dioxoquinazoline hydrochloride salt]
[1]; [2]
  Serum GPT: 37 ± 3 IU/L
  Serum amylase: 4283 ± 245 IU/L
  Serum lipase: 55 ± 3 IU/L
[1]; [3]
  Serum GPT: 50 ± 3 IU/L
  Serum amylase: 4967 ± 167 IU/L
  Serum lipase: 91 ± 22 IU/L
[1]; [4]
  Serum GPT: 76 ± 5 IU/L
  Serum amylase: 14817 ± 1459 IU/L
  Serum lipase: 466 ± 74 IU/L
[1]; [5]
  Serum GPT: 32 ± 3 IU/L
  Serum amylase: 4133 ± 264 IU/L
  Serum lipase: 58 ± 5 IU/L
[1]; [6]
  Serum GPT: 51 ± 6 IU/L
  Serum amylase: 5200 ± 274 IU/L
  Serum lipase: 81 ± 8 IU/L
[1]; [7]
  Serum GPT: 52 ± 5 IU/L
  Serum amylase: 5658 ± 682 IU/L
  Serum lipase: 95 ± 15 IU/L
dd-strain male mice; intraperitoneal dosing
  minimum lethal dose (MLD): greater than 100 mg/kg
dd-strain male mice; oral dosing
  minimum lethal dose (MLD): greater than 1000 mg/kg

## NC(=O)C1CN(CCCCC(c2ccc(F)cc2)c2ccc(F)cc2)CCN1CC(=O)Nc1c(Cl)cc(N)cc1Cl (stereo not drawn) [Compound 2, 2-Aminocarbonyl-N-(4-amino-2,6-dichlorophenyl)-4-[5,5-bis(4-fluorophenyl)pentyl]-1-piperazine acetamide]
[1]; [8]
  Serum GPT: 55 ± 2 IU/L
  Serum amylase: 4967 ± 291 IU/L
  Serum lipase: 238 ± 9 IU/L
[1]; [9]
  Serum GPT: 59 ± 6 IU/L
  Serum amylase: 4417 ± 305 IU/L
  Serum lipase: 217 ± 51 IU/L
[1]; [10]
  Serum GPT: 129 ± 23 IU/L
  Serum amylase: 9517 ± 23 IU/L
  Serum lipase: 726 ± 23 IU/L
dd-strain male mice; intraperitoneal dosing
  minimum lethal dose (MLD): greater than 100 mg/kg
dd-strain male mice; oral dosing
  minimum lethal dose (MLD): greater than 300 mg/kg

## NC(=O)C1CN(Cc2nc(-c3ccccc3)c(-c3ccccc3)o2)CCN1CC(=O)Nc1c(Cl)cc([N+](=O)[O-])cc1Cl (stereo not drawn) [Compound 3, 2-Aminocarbonyl-N-(2,6-dichloro-4-nitrophenyl)-4-[(4,5-diphenyl-2-oxazolyl)methyl]-1-piperazine acetamide . dihydrochloride salt]
[1]; [5]
  Serum GPT: 64 ± 11 IU/L
  Serum amylase: 4050 ± 309 IU/L
  Serum lipase: 243 ± 40 IU/L
[1]; [6]
  Serum GPT: 40 ± 1 IU/L
  Serum amylase: 3733 ± 149 IU/L
  Serum lipase: 135 ± 6 IU/L
[1]; [7]
  Serum GPT: 59 ± 7 IU/L
  Serum amylase: 3958 ± 146 IU/L
  Serum lipase: 200± 13 IU/L

## CCOc1cc2c(N3CCC(n4c(=O)c5cc(C)ccc5n(C)c4=O)CC3)nc(N3CCOCC3)nc2cc1OCCO [Compound 4, 3-[1-[6-ethoxy-7-(2-hidroxyethyl)oxy-2-morpholino-4-quinazolynyl]-4-piperidinyl]-1,2,3,4-tetrahydro-1,6-dimethyl-2,4-dioxoquinazoline]
[1]; 10 mg/kg oral, 7 hours after the first injection of cerulein, P-AMY assay
  Serum Amirase: 14690 ± 922 IU/l
[1]; [11]
  Serum GPT: 67 ± 2 IU/l
  Serum lipase: 195 ± 23 IU/l

## NC(=O)C1CN(CCCCC(c2ccc(F)cc2)c2ccc(F)cc2)CCN1CC(=O)Nc1c(Cl)cc(N)cc1Cl (stereo not drawn) [Compound R75231]
Adenosine uptake
  action of inhibiting adenosine uptake: have an action of inhibiting adenosine uptake

## COc1cc(C(=O)OCCCN2CCCN(CCCOC(=O)c3cc(OC)c(OC)c(OC)c3)CC2)cc(OC)c1OC [dilazep]
Adenosine uptake
  action of inhibiting adenosine uptake: have an action of inhibiting adenosine uptake

## OCCN(CCO)c1nc(N2CCCCC2)c2nc(N(CCO)CCO)nc(N3CCCCC3)c2n1 [dipyridamole]
Adenosine uptake
  action of inhibiting adenosine uptake: have an action of inhibiting adenosine uptake

## COc1cc(C(=O)OCCCN(C)CCN(C)CCCOC(=O)c2cc(OC)c(OC)c(OC)c2)cc(OC)c1OC [hexobendine]
Adenosine uptake
  action of inhibiting adenosine uptake: have an action of inhibiting adenosine uptake

## Cc1cccc(C)c1NC(=O)CN1CCN(CCCC(c2ccc(F)cc2)c2ccc(F)cc2)CC1 [lidoflazine]
Adenosine uptake
  action of inhibiting adenosine uptake: have an action of inhibiting adenosine uptake
